Source: patent US20040014730A1, “Formulations and methods of reducing toxicity of anti-infective agents” (priority 2002, published 2004)

What was measured:
[1] = cited from earlier work
[2] = Stability in acidic and basic aqueous media (proton NMR); assay type: physicochemical; settings: for stability in aqueous solution: pH 1.5 to 9.0
Procedure: The stability of 2,2′-dithio-bis-ethane sulfonate at room temperature was determined at pH ranges of 1.5 to 9.0.
The following experiment was performed to determine the stability of 2,2′-dithio-bis-ethane sulfonate in acidic and basic aqueous media. In a typical experiment, 50 mg of 2,2′-dithio-bis-ethane sulfonate (as produced by using the above described method) was dissolved in one ml of water and the pH was adjusted to 1.5, 2.0, 3.0, 4.0, 5.0 and 6.0 by adding 1 N hydrochloric acid in water or the pH was adjusted to 8.0 and 9.0 by adding 1 N sodium hydroxide in water. The reaction mixture was stirred for 24 hours at room temperature, the water was removed at reduced pressure, dissolved in spectral grade D2O, and the proton NMR spectrum was recorded.
The stability of 2,2′-dithio-bis-ethane sulfonate at pH 1.5 was further studied by heating the reaction mixture to 100 degrees Celsius for 10 minutes.

humans = settings: human, in vivo
mice = settings: mouse, in vivo, iv
dogs = settings: dog, in vivo, iv

[Cl-].[Na+] [common table salt]
accepted oral LD50 [1]: 3750 mg/kg

O=S(=O)([O-])CCSSCCS(=O)(=O)[O-].[Na+].[Na+] [Dimesna, disodium 2,2′-dithiobis ethane sulfonate]
proton NMR spectrum after stirring in aqueous solution ([2]; 50 mg in one ml water, pH 1.5, 2.0, 3.0, 4.0, 5.0, 6.0, 8.0 and 9.0, 24 hours, room temperature): no additional peaks were observed | proton NMR spectrum after heating ([2]; pH 1.5, 100 degrees Celsius for 10 minutes): No change in the proton spectrum | stability in aqueous solution ([2]; room temperature, listed as 2,2′-Dithio-bis-ethane sulfonate): very stable | stability in aqueous solution ([2]; room temperature, listed as 2,2′-dithio-bis-ethane sulfonate): stable | dose administered with no adverse effects (humans): exceeding 25 g/m^2 | dose administered intravenously with no adverse effects (mice): > 3750 mg/kg | dose administered intravenously with no adverse effects (dogs): > 3750 mg/kg
